According to patent US5481013A, “Carboxylic acid derivatives” (Ciba-Geigy Corporation, priority 1992, dated 1996):

Experiments:
Assay type in all cases: in vivo
[1] = test system: Heliothis virescens caterpillars; assay: Activity against Heliothis virescens caterpillars; settings: 144 h, 400 ppm spray on young soybean plants, first larval stage, evaluated after 6 days, read-out: percentage reduction in population or in feeding damage (% activity)
Experimental: (§1) Young soybean plants are sprayed with a spray mixture prepared with an aqueous emulsion and comprising 400 ppm of the active ingredient. After the spray coating has dried on, the soybean plants are populated with 10 Heliothis virescens in the first larval stage and placed into a plastic container. The test is evaluated after 6 days. The percentage reduction in population, or the percentage reduction in feeding damage (% activity), is determined by comparing the number of dead caterpillars and the feeding damage on the treated plants with those on the untreated plants.

[2] = test system: Panonychus ulmi (OP- and carb.- resistant); assay: Activity against Panonychus ulmi (OP- and carb.- resistant); settings: 336 h, 400 ppm spray on apple seedlings, evaluated after 14 days, read-out: percentage reduction in population (% activity)
Experimental: Apple seedlings are populated with adult females of Panonychus ulmi. After seven days, the infested plants are sprayed to drip point with an aqueous emulsion comprising 400 ppm of the test compound and grown in the greenhouse. The test is evaluated after 14 days. The percentage reduction in population (% activity) is determined by comparing the number of dead spider mites on the treated plants with those on the untreated plants. […] An activity of over 80% is shown, in particular, by compound Nos. 1.01, 2.01, 2.07, 2.08, 2.10, 2.12 to 2.16, 2.22, 2.23, 2.26, 3.01, 4.01, 4.02, 4.06, 5.01 to 5.03, 5.05, 5.06, 5.08, 5.10, 5.11, 5.15, 5.16 and 5.20 to 5.25.

Ctenocephalides felis = assay: Activity against Ctenocephalides felis; settings: 504 h, 100 ppm in flea larvae nutrient medium, flea eggs, checked after 21 days
Experimental: 20 to 25 flea eggs are placed into a horizontally positioned 50 ml tissue culture flask into which 15 g of flea larvae nutrient medium comprising 100 ppm of the active ingredient to be tested have previously been introduced. The test flasks are incubated in an incubator at 26° to 27° C. and an atmospheric humidity of 60-70%. After 21 days, the flasks are checked for the presence of adult fleas, unhatched pupae and larvae.

Aphis craccivora = assay: Activity against Aphis craccivora; settings: 400 ppm spray on pea seedlings, 20° C., evaluated after 3 and 6 days, read-out: percentage reduction in population (% activity)
Experimental: Pea seedlings are infected with Aphis craccivora, subsequently sprayed with a spray mixture comprising 400 ppm of the active ingredient, and incubated at 20° C. The test is evaluated after 3 and 6 days. The percentage reduction in population (% activity) is determined by comparing the number of dead aphids on the treated plants with those on the untreated plants.

Nilaparvata lugens [3] = assay: Systemic activity against Nilaparvata lugens; settings: 144 h, pots with rice plants in 400 ppm aqueous emulsion solution, larvae in stages 2 and 3, evaluated 6 days later, read-out: percentage reduction in population (% activity)
Experimental: (§2) Pots containing rice plants are placed into an aqueous emulsion solution comprising 400 ppm of the active ingredient. The rice plants are subsequently populated with larvae in stages 2 and 3. The test is evaluated 6 days later. The percentage reduction in population (% activity) is determined by comparing the numbers of plant hoppers on the treated plants with those on the untreated plants.

Nilaparvata lugens [4] = assay: Activity against Nilaparvata lugens (spray on rice plants); settings: 504 h, 400 ppm spray on rice plants, larvae in stages 2 and 3, evaluated after 21 days, read-out: percentage reduction in population (% activity)
Experimental: Rice plants are treated with a spray mixture prepared with an aqueous emulsion and comprising 400 ppm of the active ingredient. After the spray coating has dried on, the rice plants are populated with plant hopper larvae in stages 2 and 3. The test is evaluated after 21 days. The percentage reduction in population (% activity) is determined by comparing the number of surviving plant hoppers on the treated plants with the number of plant hoppers on the untreated plants. […] An activity of over 80% is shown, in particular, by compound Nos. 1.01, 2.01 to 2.03, 2.07, 2.08, 2.10 to 2.16, 2.20, 2.22, 2.23, 2.26, 3.01, 4.01 to 4.06, 4.20, 5.01 to 5.06, 5.08, 5.10 to 5.12, 5.15, 5.16 and 5.20 to 5.25.

Heliothis virescens = assay: Ovicidal/larvicidal activity on Heliothis virescens; settings: 192 h, 400 ppm spray on eggs deposited on cotton, evaluated after 8 days, read-out: % reduction in population (hatching percentage of eggs and survival rate of caterpillars)
Experimental: Heliothis eggs which have been deposited on cotton are sprayed with a spray mixture prepared with an aqueous emulsion and comprising 400 ppm of the active ingredient. After 8 days, the hatching percentage of the eggs and the survival rate of the caterpillars are evaluated by comparing them with untreated control batches (% reduction in population).

Bemisia tabaci = assay: Activity against Bemisia tabaci; settings: 336 h, 400 ppm spray on dwarf bean plants with nymphs, evaluated 14 days after application, read-out: activity (hatching percentages vs untreated control)
Experimental: Dwarf bean plants are placed into gauze cages and populated with adult Bemisia tabaci specimens (white fly). After oviposition has taken place, all adults are removed and, 10 days later, the plants with the nymphs located thereon are treated with a spray mixture of the active ingredients to be tested (concentration 400 ppm), which has been prepared with an aqueous emulsion. The test is evaluated for hatching percentages 14 days after the active ingredient has been applied by comparison with the untreated control batches. […] An activity of over 80% is shown, in particular, by compound Nos. 1.01, 2.01 to 2.08, 2.10 to 2.16, 2.22, 2.23, 3.01, 4.01, 4.02, 4.05, 4.06, 5.02, 5.03, 5.06 to 5.08, 5.10, 5.11, 5.20, 5.21 and 6.09.

Tetranychus urticae = assay: Activity against Tetranychus urticae; settings: 144 h, 400 ppm spray on young bean plants, mixed population, 6 days at 25° C, read-out: percentage reduction in population (% activity)
Experimental: Young bean plants are populated with a mixed population of Tetranychus urticae and, after 1 day, sprayed with a spray mixture prepared with an aqueous emulsion and comprising 400 ppm of the active ingredient. The plants are subsequently incubated for 6 days at 25° C and then evaluated. The percentage reduction in population (% activity) is determined by comparing the number of dead eggs, larvae and adults on the treated plants with those on the untreated ones.

Nephotettix cincticeps [5] = assay: Activity against Nephotettix cincticeps (spray on rice plants); settings: 504 h, 400 ppm spray on rice plants, larvae in stages 2 and 3, evaluated 21 days later, read-out: percentage reduction in population (% activity)
Experimental: Rice plants are treated with a spray mixture prepared with an aqueous emulsion and comprising 400 ppm of the active ingredient. After the spray coating has dried on, the rice plants are populated with leaf hopper larvae in stages 2 and 3. The test is evaluated 21 days later. The percentage reduction in population (% activity) is determined by comparing the number of surviving leaf hoppers on the treated plants with those on the untreated plants.

Nephotettix cincticeps [6] = assay: Systemic activity against Nephotettix cincticeps; settings: 144 h, pots with rice plants in 400 ppm aqueous emulsion solution, larvae in stages 2 and 3, evaluated after 6 days, read-out: percentage reduction in population (% activity)
Experimental: as §2, with “evaluated after” for “evaluated”, “6 days.” for “6 days later.”, “the number” for “the numbers”, “of leaf” for “of plant”

Dermanyssus gallinae = assay: Activity against Dermanyssus gallinae; settings: 72 h, 10 ppm solution, mites in different development stages, after 3 days
Experimental: 2 to 3 ml of a solution comprising 10 ppm of active ingredient and approximately 200 mites in different development stages are placed into a glass container which is open at the top. The container is then sealed with a cottonwool ball, shaken for 10 minutes until the mites are wetted completely, and then briefly turned over so that the remaining test solution can be absorbed by the cottonwool. After 3 days, the mortality of the mites is determined by counting the dead individuals; it is given as a percentage.

adult Anthonomus grandis = assay: Activity against adult Anthonomus grandis; settings: 72 h, 400 ppm spray on young cotton plants, adults, evaluated after 3 days, read-out: percentage reduction in population or in feeding damage (% activity)
Experimental: as §1, with “cotton” for “soybean”, “adult Anthonomus grandis” for “Heliothis virescens in the first larval stage”, “3” for “6”, “beetles” for “caterpillars”

[7] = test system: Crocidolomia binotalis caterpillars; assay: Activity against Crocidolomia binotalis caterpillars; settings: Brassica oleracea, 72 h; 400 ppm spray on young cabbage plants, third larval stage, evaluated after 3 days; read-out: percentage reduction in population or in feeding damage (% activity)
Experimental: as §1, with “cabbage” for “soybean”, “infested” for “populated”, “Crocidolomia binotalis” for “Heliothis virescens”, “third” for “first”, “3” for “6”

O=C(CCCC=C(F)F)OCCOc1ccc(OC(=O)c2ccccc2)cc1 [Compound 2.22]
> 80%: activity at 400 ppm [1] | activity at 400 ppm [2] | pest or weed control at 100 ppm (Ctenocephalides felis) | activity at 400 ppm (Aphis craccivora) | activity at 400 ppm (Nilaparvata lugens [3]) | activity at 400 ppm (Nilaparvata lugens [4]) | pest or weed control at 400 ppm (Heliothis virescens) | pest or weed control at 400 ppm (Bemisia tabaci) | activity at 400 ppm (Tetranychus urticae)

O=C(CCCC=C(F)F)OCCOc1ccc(OC(=O)Oc2ccccc2)cc1 [Compound 2.23]
> 80%: activity at 400 ppm [1] | activity at 400 ppm [2] | pest or weed control at 100 ppm (Ctenocephalides felis) | activity at 400 ppm (Aphis craccivora) | activity at 400 ppm (Nilaparvata lugens [3]) | activity at 400 ppm (Nilaparvata lugens [4]) | pest or weed control at 400 ppm (Heliothis virescens) | pest or weed control at 400 ppm (Bemisia tabaci) | activity at 400 ppm (Tetranychus urticae) | activity at 400 ppm (Nephotettix cincticeps [5])

O=C(CCCCCCCC=C(F)F)OCCOc1ccc(Oc2ccccc2)cc1 [Compound 4.01]
> 80%: activity at 400 ppm (Nephotettix cincticeps [6]) | activity at 400 ppm [1] | activity at 400 ppm [2] | pest or weed control at 400 ppm (Bemisia tabaci) | mortality at 10 ppm (Dermanyssus gallinae) | activity at 400 ppm (Nephotettix cincticeps [5])

O=C(CCCCCCCC=C(F)F)OCCOc1ccc(Sc2ccccc2)cc1 [Compound 4.02]
> 80%: activity at 400 ppm (Nephotettix cincticeps [6]) | activity at 400 ppm [1] | activity at 400 ppm [2] | pest or weed control at 400 ppm (Bemisia tabaci) | mortality at 10 ppm (Dermanyssus gallinae) | activity at 400 ppm (Nephotettix cincticeps [5])

CC(COC(=O)CCCCCCCC=C(F)F)Oc1ccc(Oc2ccccc2)cc1 (centres unmarked) [Compound 4.06]
> 80%: activity at 400 ppm (Nephotettix cincticeps [6]) | activity at 400 ppm [1] | activity at 400 ppm [2] | pest or weed control at 400 ppm (Bemisia tabaci) | mortality at 10 ppm (Dermanyssus gallinae) | activity at 400 ppm (Nephotettix cincticeps [5])

O=C(CCCCCCCCCC=C(F)F)OCCOc1ccc(Oc2ccccc2)cc1 [Compound 5.01]
> 80%: activity at 400 ppm (adult Anthonomus grandis) | activity at 400 ppm [7]

O=C(CCCCCCCCCC=C(F)F)OCCOc1ccc(Sc2ccccc2)cc1 [Compound 5.02]
> 80%: activity at 400 ppm (adult Anthonomus grandis) | pest or weed control at 400 ppm (Bemisia tabaci) | activity at 400 ppm [7]

O=C(CCCCCCCCCC=C(F)F)OCCOc1ccc(OCc2ccccc2)cc1 [Compound 5.05]
> 80%: activity at 400 ppm (adult Anthonomus grandis) | activity at 400 ppm [2] | activity at 400 ppm (Aphis craccivora) | activity at 400 ppm [7] | activity at 400 ppm (Nephotettix cincticeps [5])

O=C(CCCCCCCCCC=C(F)F)OCCOc1ccc(OCc2cccc(F)c2)cc1 [Compound 5.24]
> 80%: activity at 400 ppm (Nephotettix cincticeps [6]) | activity at 400 ppm [1] | activity at 400 ppm (Nephotettix cincticeps [5])
